IC50 data for 89 compounds are collected here from the supplement of paper PMC3493320.

Some results are limits rather than exact numbers.

For the test, the system named is NCI-H295R. Kind of test: IC50 (antiproliferative, ATP content). Particulars: 48 h. An outline of the steps:
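In 1536-well plates, 1500 adrenocortical carcinoma cells per well were grown overnight in serum-free, ITS-supplemented DMEM before compounds were pin-transferred at 8 final concentrations (0.6 nM to 46 µM). After 48 h at 37 °C and 5% CO2, CellTiter-Glo luminescence was read following 20 min at room temperature and normalised to vehicle and positive-control wells. IC50 values came from logistic curve fits, with compounds lacking any concentration response listed as above the top dose.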
Turning to `O=C(O)CN(CCN(CC(=O)O)CC(=O)O)CCN(CC(=O)O)CC(=O)O`, the concentration for half-maximal inhibition (IC50) is > 46 µM.

For the compound `CCCCCCCCCCCCCCCCCCO`, the half-inhibitory concentration (IC50) is > 46 µM.

Regarding `CCCCCCCCCC(CC)c1ccc(S(=O)(=O)[O-])cc1.[Na+]` (centres undefined), the IC50 is > 46 µM.

For `Cl.O=S(=O)(c1cccc2cnccc12)N1CCCNCC1`, the IC50 is > 46 µM.

For `CN(C)C(=O)Nc1ccc(Cl)c(Cl)c1`, the IC50 was > 46 µM.

For `CCNC1(c2cccs2)CCCCC1=O.Cl` (centres undefined), the IC50 is > 46 µM.

`O=C(NCCO[N+](=O)[O-])c1cccnc1`: the IC50 was > 46 µM.

For `NCC(O)c1ccc(O)cc1` (centres undefined), the concentration for half-maximal inhibition (IC50) is > 46 µM.

With `C[C@@H]1C[C@H]2[C@@H]3CCC4=CC(=O)C=C[C@]4(C)[C@@]3(F)C(O)C[C@]2(C)[C@H]1C(=O)CO` (some centres undefined), the IC50 was > 46 µM.

For the compound `Cc1cc2nc3c(=O)[nH]c(=O)nc-3n(C[C@H](O)[C@H](O)[C@H](O)CO)c2cc1C`, the IC50 was > 46 µM.

With `Cc1cccc(C)c1Nc1ncccc1C(=O)O`, the 50% inhibitory concentration (IC50) was > 46 µM.

On to `NP(N)(=O)NC(=O)c1ccc(F)cc1`, for which the IC50 is > 46 µM.

In the case of `O=c1cc(CO)occ1O`, the IC50 was > 46 µM.

As for `CC12CCC(C1)C(C)(C)C2=O` (centres undefined), the IC50 is > 46 µM.

On to `O=c1[nH]cnc2c1ncn2[C@H]1CC[C@@H](CO)O1`, for which the IC50 was > 46 µM.

`CN1CCN(c2c(F)cc3c(=O)c(C(=O)O)cn(CCF)c3c2F)CC1`: the IC50 is > 46 µM.

For `Cc1ccc(S(=O)(=O)O)cc1.c1cc2c(c(NC3=NCCN3)c1)CCCC2`, the IC50 is > 46 µM.

On to `CCS(=O)(=O)C(C)(C)S(=O)(=O)CC`, for which the concentration for half-maximal inhibition (IC50) was > 46 µM.

For `CC[N+](CC)(CC)CCOc1cccc(OCC[N+](CC)(CC)CC)c1OCC[N+](CC)(CC)CC.[I-].[I-].[I-]`, the IC50 is > 46 µM.

Regarding `CN1c2ccccc2C(NCCCCCCC(=O)[O-])c2ccc(Cl)cc2S1(=O)=O.[Na+]` (centres undefined), the IC50 is > 46 µM.

`F[C@]1([C@](C[C@@H]3C)([H])[C@@]4([H])[C@]([C@@](CC4)(O)[C@@](C)=O)(C)C[C@@H]1O)[C@](C=C2)(C)C3=CC2=O`: the IC50 was > 46 µM.

Turning to `O=C(N[C@H]([C@H]1O[C@@H]([C@@H]4O)OC(C(O)=O)[C@H]([C@@H]4O)O[C@@H]([C@@H]3NC(C)=O)O[C@@H]([C@H](C3O[C@H]([C@@H]2O)O[C@H]([C@](O)=O)C([C@@H]2O)O)O)CO)C(O[C@@H]([C@H]1O)CO)O)C` (some centres undefined), the 50% inhibitory concentration (IC50) is > 46 µM.

Regarding `Cl.NC1C[C@H]1c1ccccc1` (some centres undefined), the IC50 was > 46 µM.

Regarding `COc1cc(C)nc(-n2nc(C)cc2OC)n1`, the IC50 was > 46 µM.

For `C[n+]1ccccc1C=NO.[Cl-]`, the IC50 was > 46 µM.

Consider `Cc1cc(-n2nc3ccc(Cl)cc3n2)c(O)c(C(C)(C)C)c1`, for which the IC50 is > 46 µM.

Turning to `CCCCCCCCCCCC(=O)OC[C@@H](O)[C@H]1OC[C@H](O)[C@H]1O`, the IC50 is > 46 µM.

As to `C#C[C@]1(O)CC[C@H]2[C@@H]3CCC4=CC(=O)CC[C@@H]4[C@H]3C(=C)C[C@@]21CC`, the IC50 is > 46 µM.

For the compound `CCN(CC)CCNC(=O)c1ccc(N)cc1`, the IC50 was > 46 µM.

Regarding `C[C@H](CCC(=O)O)[C@H]1CC[C@H]2[C@@H]3C(=O)C[C@@H]4CC(=O)CC[C@]4(C)[C@H]3CC(=O)[C@]12C`, the IC50 was > 46 µM.

`CC(C)O`: the IC50 is > 46 µM.

For `O=C(COc1ccc(Cl)cc1)OCCNC12CC3CC(CC(C3)C1)C2`, the IC50 is > 46 µM.

As to `CCN(CC)C(=O)N1CCN(C)CC1.O=C(O)CC(O)(CC(=O)O)C(=O)O`, the IC50 is > 46 µM.

Turning to `CC(C)(C)NC[C@H](O)COc1nsnc1N1CCOCC1`, the IC50 is > 46 µM.

`CO[C@]12C[C@@H](COC(=O)c3cncc(Br)c3)CN(C)[C@@H]1Cc1cn(C)c3cccc2c13`: the IC50 is > 46 µM.

As to `O=C1[C@](NC(C3S\C(S3)=C(C(O)=O)/C(N)=O)=O)(OC)[C@]2([H])N1C(C(O)=O)=C(CSC4=NN=NN4C)CS2` (some centres undefined), the concentration for half-maximal inhibition (IC50) is > 46 µM.

As to `O=P(CC(N2C[C@H]([C@H]3CCCCC3)C[C@H]2[C@@](O)=O)=O)(OC(OC(CC)=O)C(C)C)CCCCC1=CC=CC=C1` (some centres undefined), the half-inhibitory concentration (IC50) was > 46 µM.

As for `O=C2C=1/N=C\NC=1N(C)C(=O)N2C`, the IC50 is > 46 µM.

With `O=C(O)CCCCC(=O)O`, the IC50 is > 46 µM.

As to `O=C1CCC(c2ccccc2)(C2CCN(Cc3ccccc3)CC2)C(=O)N1` (centres undefined), the half-maximal inhibitory concentration (IC50) is > 46 µM.

Consider `COc1ccc(CCN(C)CCCN2CCc3cc(OC)c(OC)cc3CC2=O)cc1OC.Cl`, for which the IC50 is > 46 µM.

On to `CC(C)CN(C[C@@H](O)[C@H](Cc1ccccc1)NC(=O)O[C@@H]1CCOC1)S(=O)(=O)c1ccc(N)cc1`, for which the IC50 is > 46 µM.

Consider `C[C@]43CCC(=O)\C=C4\CC[C@@H]1[C@@H]3CC[C@]2(C)[C@@](O)(CC[C@@H]12)C#C`, for which the IC50 was > 46 µM.

As to `Nc1c2c(nc3ccccc13)CCCC2`, the IC50 is > 46 µM.

`CCOC(=O)[C@H](CCc1ccccc1)N[C@@H](C)C(=O)N1Cc2ccccc2C[C@H]1C(=O)O.Cl`: the IC50 was > 46 µM.

For `O=C([O-])c1ccc(NC(=O)[C@H](Cc2ccc(O)cc2)NC(=O)c2ccccc2)cc1.[Na+]`, the IC50 is > 46 µM.

Take `Cl.NNc1ccccc1`: the IC50 was > 46 µM.

Take `O=C1c2c(O)cccc2[C@H]([C@@H]2O[C@H](CO)[C@@H](O)[C@H](O)[C@H]2O)c2cc(CO)cc(O)c21`: the IC50 was > 46 µM.

Regarding `COc1cc2nc(N(C)CCCNC(=O)C3CCCO3)nc(N)c2cc1OC.Cl` (centres undefined), the IC50 is > 46 µM.

Regarding `CCN(CCCc1ccccc1)CCCc1ccccc1.O=C(O)CC(O)(CC(=O)O)C(=O)O`, the IC50 is > 46 µM.

Take `O=C(O)Cc1sc(-c2ccccc2)nc1-c1ccc(Cl)cc1`: the IC50 is > 46 µM.

Take `COc1nc(N)nc2c1ncn2[C@@H]1O[C@H](CO)[C@@H](O)[C@@H]1O`: the 50% inhibitory concentration (IC50) is > 46 µM.

Turning to `COc1ccc(C(=O)CC(=O)c2ccc(C(C)(C)C)cc2)cc1`, the IC50 was > 46 µM.

Take `Cn1sc(Cl)cc1=O`: the IC50 is > 46 µM.

With `CCCCCCCCCCCCCCCCCCOC[C@H](COP(=O)([O-])OCC[N+](C)(C)C)OC`, the IC50 is > 46 µM.

As for `O=c1[nH]c(=O)n([C@H]2C[C@H](O)[C@@H](CO)O2)cc1Br`, the IC50 is > 46 µM.

For `Cc1ccc(O)c([C@H](CCN(C(C)C)C(C)C)c2ccccc2)c1`, the half-maximal inhibitory concentration (IC50) is > 46 µM.

Take `Clc1ccc2c(c1)C(c1ccccc1)=NCc1nncn1-2`: the IC50 is > 46 µM.

Turning to `COc1ccc(C(=O)N2CCCC2=O)cc1`, the half-inhibitory concentration (IC50) was > 46 µM.

With `Cn1c(=O)c2c(ncn2CCO)n(C)c1=O`, the IC50 was > 46 µM.

On to `[C@@]2\1(\C(=C/C(/C=C/1)=O)CC[C@@H]4[C@@H]2CC[C@@]3(OC(=O)CC[C@H]34)C)C`, for which the IC50 is > 46 µM.

On to `O=C(O)C(=O)O.c1ccc2cc(C3=NCCN3)ccc2c1`, for which the IC50 was > 46 µM.

Take `CC(C)CC(=O)N[C@H](C(=O)N[C@H](C(=O)N[C@@H](CC(C)C)[C@@H](O)CC(=O)N[C@@H](C)C(=O)N[C@@H](CC(C)C)[C@@H](O)CC(=O)O)C(C)C)C(C)C`: the IC50 was > 46 µM.

As to `CCCCc1cc2ccccc2c(OCCN(C)C)n1.Cl`, the IC50 was > 46 µM.

As to `CC(=O)c1ccc2c(c1)N(CCCN(C)C)c1ccccc1S2.O=C(O)/C=C/C(=O)O`, the IC50 was > 46 µM.

Regarding `O=C(CCCN1CC=C(n2c(=O)[nH]c3ccccc32)CC1)c1ccc(F)cc1`, the IC50 is > 46 µM.

As for `O=C(O)COc1ccc(C(=O)c2cccs2)c(Cl)c1Cl`, the IC50 is > 46 µM.

As to `NCCCCCC(=O)O`, the IC50 was > 46 µM.

In the case of `N[C@@H](CSCCCO)C(=O)O`, the IC50 is > 46 µM.

As to `CCCCCCCC(=O)O`, the IC50 was > 46 µM.

For the compound `NS(=O)(=O)c1ccc(C(=O)O)cc1`, the IC50 is > 46 µM.

For `CCCCC/C=C\C/C=C\C/C=C\C/C=C\CCCC(=O)NCC(=O)O`, the IC50 was > 46 µM.

Regarding `FC1(F)C(F)(F)C(F)(F)C2(F)C(F)(F)C(F)(F)C(F)(F)C(F)(F)C2(F)C1(F)F` (centres undefined), the half-inhibitory concentration (IC50) is > 46 µM.

Turning to `CC(C)=O`, the IC50 was > 46 µM.

`ClC1C(Cl)C(Cl)C(Cl)C(Cl)C1Cl` (centres undefined): the IC50 was > 46 µM.

With `O=C([O-])c1nc(O)nc(O)n1.[K+]`, the IC50 was > 46 µM.

`O=C2O[C@H](C)C/C=C/C=C/C=C/C=C/[C@H](O[C@@H]3O[C@H](C)[C@@H](O)[C@H](N)[C@@H]3O)C[C@]([C@H]([C@@](O)=O)[C@@H](O)C4)([H])O[C@]4(O)C[C@@H](O)C[C@@]1([H])O[C@@]([H])1/C=C/2`: the IC50 was > 46 µM.

`CCOC(=O)c1ccc(N)cc1`: the IC50 was > 46 µM.

Take `CC(=O)CCCCn1c(=O)c2c(ncn2C)n(C)c1=O`: the IC50 was > 46 µM.

With `CCC(C)(C)C(=O)O[C@H]1C[C@@H](C)C=C2C=C[C@H](C)[C@H](CC[C@@H]3C[C@@H](O)CC(=O)O3)[C@H]21`, the IC50 was > 46 µM.

For `Br.COc1ccc2c(c1)[C@]13CCCC[C@@H]1[C@H](C2)N(C)CC3.O`, the IC50 is > 46 µM.

`C[C@H](NCCc1ccc(O)cc1)[C@H](O)c1ccc(O)cc1.Cl`: the IC50 was > 46 µM.

With `N=C(Nc1ccccc1)Nc1ccccc1`, the IC50 is > 46 µM.

As to `Cl.Nc1c2c(nc3c1CCC3)CCCC2.O`, the IC50 is > 46 µM.

As for `O=[C@@](NC2=O)[C@](N2)3C1=C(OCC3)C=CC(F)=C1`, the IC50 is > 46 µM.

For the compound `O=S(=O)(O)NC1CCCCC1`, the IC50 was > 46 µM.

Consider `Cl.NC1=NCC2c3ccccc3Cc3ccccc3N12` (centres undefined), for which the IC50 was > 46 µM.

As to `CN1[C@@H]2CC[C@@H]1CC(OC1c3ccccc3CCc3ccccc31)C2.O=C(O)CC(O)(CC(=O)O)C(=O)O` (some centres undefined), the IC50 was > 46 µM.

Regarding `C[C@@H]1O[C@@H](OC[C@H]2O[C@@H](Oc3c(-c4ccc(O)c(O)c4)oc4cc(O)cc(O)c4c3=O)[C@H](O)[C@@H](O)[C@@H]2O)[C@H](O)[C@H](O)[C@H]1O`, the IC50 was > 46 µM.
